# From ChEMBL document CHEMBL4814061, “Novel Azaquinolones as PARP1 Inhibitors for Treating Cancer” (ACS Med Chem Lett, 2021)
# Target: Poly [ADP-ribose] polymerase 1 (Homo sapiens, UniProt P09874)
# Assay: Inhibition of recombinant full length 6His-tagged PARP1 (unknown origin) incubated for 4 hrs by fluorescence anisotropy assay
# Chain of Poly [ADP-ribose] polymerase 1 (P09874 whole entry): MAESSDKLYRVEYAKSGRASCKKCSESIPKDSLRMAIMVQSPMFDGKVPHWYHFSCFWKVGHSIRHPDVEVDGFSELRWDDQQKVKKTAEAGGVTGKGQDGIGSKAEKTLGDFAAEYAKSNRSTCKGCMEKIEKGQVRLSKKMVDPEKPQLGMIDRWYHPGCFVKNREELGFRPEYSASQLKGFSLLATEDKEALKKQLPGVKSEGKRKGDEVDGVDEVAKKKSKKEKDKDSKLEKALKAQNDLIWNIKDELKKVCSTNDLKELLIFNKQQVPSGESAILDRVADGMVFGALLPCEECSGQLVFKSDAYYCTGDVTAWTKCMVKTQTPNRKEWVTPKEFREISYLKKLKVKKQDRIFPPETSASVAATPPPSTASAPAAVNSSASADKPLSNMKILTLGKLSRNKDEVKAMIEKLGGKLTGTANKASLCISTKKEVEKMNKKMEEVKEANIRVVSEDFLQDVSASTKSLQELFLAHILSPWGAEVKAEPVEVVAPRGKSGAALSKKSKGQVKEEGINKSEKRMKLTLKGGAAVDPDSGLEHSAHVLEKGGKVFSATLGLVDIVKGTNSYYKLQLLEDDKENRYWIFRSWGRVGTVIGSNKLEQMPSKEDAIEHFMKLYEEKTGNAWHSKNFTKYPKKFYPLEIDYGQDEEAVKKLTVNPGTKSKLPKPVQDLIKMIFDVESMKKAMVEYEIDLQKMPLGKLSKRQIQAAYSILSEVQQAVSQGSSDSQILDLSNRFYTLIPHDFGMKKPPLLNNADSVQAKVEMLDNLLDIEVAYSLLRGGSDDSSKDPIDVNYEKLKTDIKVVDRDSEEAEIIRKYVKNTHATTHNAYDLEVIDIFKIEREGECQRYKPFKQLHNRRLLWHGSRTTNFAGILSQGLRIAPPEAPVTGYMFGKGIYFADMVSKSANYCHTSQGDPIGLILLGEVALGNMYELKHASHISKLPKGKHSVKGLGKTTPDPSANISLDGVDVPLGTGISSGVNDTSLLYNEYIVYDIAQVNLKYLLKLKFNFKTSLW
row,IC50,SMILES
1,2 nM,CNC(=O)c1ccc(N2CCN(Cc3cc4[nH]c(=O)c(CCF)cc4cn3)CC2)cn1
2,3 nM,CCc1cc2cnc(CN3CCN(c4ccc(C(=O)NC)nc4Cl)CC3)cc2[nH]c1=O
3,3 nM,CNC(=O)c1ccc(N2CCN(Cc3cc4[nH]c(=O)c(CC(F)F)cc4cn3)CC2)c(F)n1
4,2 nM,CCc1cc2cnc(CN3CCN(c4ccc(C(=O)NC)nc4F)CC3)cc2[nH]c1=O
5,2 nM,CCc1cc2cnc(CN3CCN(c4ccc(C(N)=O)nc4)CC3)cc2[nH]c1=O
